For data set [1], the system named is THP-1 cells. In words: WST-1 cell proliferation assay, THP-1. Type of data set: cell-based, human. The conditions noted are these: for IC50: Homo sapiens, THP-1, WST-1, 24 h, 0.5-20 μM, mean ± SD; for effect on cell proliferation: THP-1, 0.5-20 μM, 24 h. As for the experimental part: (§1) Initially, we examined the effect of six nitro-substituted hydroxynaphthanilides on the proliferation of human leukaemia and breast carcinoma cell lines, using Water Soluble Tetrazolium Salts-1 (WST-1) assay. For such analyses, THP-1 and MCF-7 cells were treated with the compounds at concentrations ranging from 0.5 to 20 μM for 24 h. […] The inhibitory effect of 2 and 6 was statistically significant (p < 0.001) starting from the concentration of 2.5 and 5 μM in THP-1 and MCF-7 cells, respectively. From the concentration-response curves, the IC50 values were determined.
(§2) THP-1 human monocytic leukemia cell line, MCF-7 human breast adenocarcinoma cells and 3T3-L1 mouse embryonic fibroblast were purchased from the European Collection of Cell Cultures (ECACC, Salisbury, UK). Cells were routinely tested for the absence of mycoplasma (Hoechst 33258 staining method). THP-1 cells were maintained in RPMI 1640 culture medium containing 2 mM L-glutamine; MCF-7 and 3T3-L1 cells were cultured in DMEM medium. All of the culture media were supplemented with 10% heat-inactivated FBS and antibiotics (100 U/mL penicillin and 100 μg/mL streptomycin). Cells were maintained at 37 °C in a humidified atmosphere containing 5% CO2.
(§3) Cell proliferation was evaluated using Cell Proliferation Reagent WST-1 (2-(4-iodophenyl)-3-(4-nitrophenyl)-5-(2,4-disulfophenyl)-2H-tetrazolium) (Roche Diagnostics, Mannheim, Germany) according to the manufacturer´s instructions. THP-1 (5 × 10^4 cells/100 μL culture medium per well), MCF-7 cells (1 × 10^4 cells/100 μL per well), and 3T3-L1 (2.5 × 10^3 cells/100 μL per well) were cultured in 96-well plates in triplicate. The measurement was performed using Synergy 2 Multi-Mode Microplate Reader (BioTek, Winooski, VT, USA) after 24 h incubation of cells with tested compounds dissolved in DMSO and subsequently in RPMI 1640 to final concentration ranging 0.5–20 μM in the assays. Cell viability was assessed by dye exclusion test. THP-1 (2 × 10^5 cells/mL per well) and MCF-7 cells (8 × 10^4 cells/mL per well) were incubated in 24-well plates with the indicated concentrations of compounds for 24 h. The number of viable cells was determined using hemocytometer after their staining with a solution of erythrosin B (0.1% erythrosin B (w/v) in PBS). The assays were conducted in triplicate. The IC50 and LC50 values were calculated from fitted concentration-response curves using GraphPad Prism 5.00 software (GraphPad Software, San Diego, CA, USA).
(Tetrazolium assays rely on reduction of a dye to a coloured formazan, in cell work by metabolically active cells.)

Data set [2] deals with MCF-7 cells. The data set can be described thus: WST-1 cell proliferation assay, MCF-7. Type of data set: cell-based, human. Conditions: for IC50: Homo sapiens, MCF7, WST-1, 24 h, 0.5-20 μM, mean ± SD; for effect on cell proliferation: MCF-7, 0.5-20 μM, 24 h. As for the experimental part: as §1, §2, §3
A further data set concerns 3T3-L1 cells. In words: WST-1 cell proliferation assay, 3T3-L1 non-tumour cells. The data set is classed as cell-based, mouse. Conditions: for IC50: Mus musculus, 3T3-L1, WST-1, 24 h, non-tumour cells, mean ± SD. How it is done:
as §2, §3

Data set [3] can be described thus: Erythrosin B dye exclusion viability test, THP-1. Type of data set: cell-based. The conditions noted are these: human, THP-1 cells; erythrosin B exclusion test, 24 h, mean ± SD; read-out: THP-1 LC50. How it is done:
(§4) Subsequently, for the comparison of the antiproliferative and cytotoxic effects we assessed the cell viability after 24 h treatment with compounds 1–6 in both tumour cell lines using the dye exclusion test.
as §2, §3

The nature of data set [4]: Erythrosin B dye exclusion viability test, MCF-7. Conditions: human, MCF-7 cells; erythrosin B exclusion test, 24 h, mean ± SD; read-out: MCF-7 LC50. The data set is classed as cell-based. How it is done:
as §4, §2, §3

In data set [5] the test system is THP-1 cells. The data set can be described thus: Erythrosin B dye exclusion viability test, THP-1. The data set is classed as cell-based. How it is done:
as §4, §2, §3

In data set [6] the test system is MCF-7 cells. The data set can be described thus: Erythrosin B dye exclusion viability test, MCF-7. The conditions noted are these: MCF-7 cells. The data set is classed as cell-based. How it is done:
as §4, §2, §3

Data set [7] in a line: Annexin V-FITC/PI apoptosis assay by flow cytometry, THP-1. The data set is classed as cell-based, human. The conditions noted are these: human, THP-1 cells, THP-1, 5 μM, representative dot plot, read-out: quadrant I: viable cells. How it is done:
(§5) Staining of cells by Annexin V-FITC conjugate reflects the externalization of phosphatidylserine on the outer surface of the cell membrane as one of the early indicators of apoptosis.
(§6) Early and late stages of apoptosis were detected using Annexin V-FITC Kit—Apoptosis Detection Kit faccording to the manufacturer´s instructions. […] At each time-point of incubation (12, 18, and 24 h) the cells were washed with ice-cold PBS prior to being resuspended at a concentration of 5 × 10^6 cells/mL in a total volume of 100 μL of 1× binding buffer. Annexin V-FITC solution (final concentration 0.25 μg/mL) and PI (final concentration 12.5 μg/mL) were added to each sample; the cell suspension was kept on ice and incubated for 15 min in the dark. After that, the analysis was carried out by flow cytometry. The data were evaluated using Kaluza Flow Cytometry Analysis 1.2. Per sample, a total number of 2 × 10^4 cells were analysed.

For data set [8], the system named is THP-1 cells. The data set is described as above. Conditions: mean. Type of data set: cell-based, human. As for the experimental part:
as §5, §6

What is called IC50 is the concentration needed to halve the response being measured. As for `O=C(Nc1ccccc1[N+](=O)[O-])c1c(O)ccc2ccccc12` [Compound 4], the concentration for half-maximal inhibition (IC50) in the data set with THP-1 cells [1], with MCF-7 cells [2] and in the data set on 3T3-L1 cells was more than 20 µM throughout. Also, the “effect on cell proliferation” value in the data set with THP-1 cells [1] and with MCF-7 cells [2] was “neither compound 1 nor 4 (both ortho-substituted derivatives) was able to induce the inhibition of cell growth” each time. Also, the CC50 at 24 h in [3] and in data set [4] was more than 20 µM throughout.

Turning to `O=C(Nc1ccc([N+](=O)[O-])cc1)c1cc2ccccc2cc1O` [Compound 3], the IC50 worked out at 1.05 ± 0.199 µM in the data set on THP-1 cells [1], 1.65 ± 0.938 µM in the data set with MCF-7 cells [2] and 4.41 ± 0.293 µM with 3T3-L1 cells. In addition, the “effect on cell proliferation” value with THP-1 cells [1] is reported as “inhibit cell growth in both cell lines in a dose-dependent manner”; in the data set with MCF-7 cells [2], “inhibit cell growth in both cell lines in a dose-dependent manner”; in the data set on 3T3-L1 cells (3T3-L1, 24 h) it was “affected the proliferation of 3T3-L1 cells in a dose-dependent manner”. The CC50 at 24 h in data set [3] was found to be 3.44 ± 1.21 µM; in data set [4], 12.9 ± 1.98 µM. The “LC50 compared to IC50” value in the data set on THP-1 cells [5] is on record as 2–3 fold. For the same compound, the “LC50 in comparison with IC50” value with MCF-7 cells [6] was “approximately seven-fold”.

With `O=C(Nc1ccccc1[N+](=O)[O-])c1cc2ccccc2cc1O` [Compound 1], the IC50 in the data set on THP-1 cells [1], in the data set on MCF-7 cells [2] and in the data set on 3T3-L1 cells was more than 20 µM throughout. The “effect on cell proliferation” value in the data set on THP-1 cells [1] and in the data set with MCF-7 cells [2] was “neither compound 1 nor 4 (both ortho-substituted derivatives) was able to induce the inhibition of cell growth” throughout. Also, the CC50 at 24 h in data set [3] and in [4] was more than 20 µM throughout.

As for `CC[C@@]1(O)C(=O)OCc2c1cc1n(c2=O)Cc2cc3ccccc3nc2-1` [camptothecin, reference compound], in data set [7] (12 h), the viability at 12 h, 5 µM came to 55.8%. Moreover, the viability at 18 h, 5 µM in data set [7] (18 h) worked out at 53.8%. The viability at 24 h, 5 µM in [7] (24 h) stood at 50.9%. In the data set on THP-1 cells [8] (THP-1, 5 µM, 12 h), this compound came in with an early apoptotic cells of 21.28% and a late apoptotic cells of 24.10%. In the data set with THP-1 cells [8] (THP-1, 5 µM, 24 h), this compound registered an early apoptotic cells of 9.65% and a late apoptotic cells of 33.08%.

`N.N.[Cl][Pt][Cl]` [cisplatin, reference compound] showed an early apoptotic cells in the data set on THP-1 cells [8] (THP-1, 10 µg/mL, 24 h) of 44.38%.

In the case of `O=C(Nc1cccc([N+](=O)[O-])c1)c1c(O)ccc2ccccc12` [Compound 5], the IC50 in the data set with THP-1 cells [1], in the data set with MCF-7 cells [2] and in the data set with 3T3-L1 cells was more than 20 µM throughout. Besides, the figures for the “effect on cell proliferation” value in the data set with THP-1 cells [1] and in the data set with MCF-7 cells [2] were “proliferation of THP-1 cells was not affected” and “a 50% reduction in cell growth was not achieved”, respectively. Also, the CC50 at 24 h in data set [3] and in [4] was more than 20 µM in each case.

The values above are taken from article PMC5000617, “Antiproliferative and Pro-Apoptotic Effect of Novel Nitro-Substituted Hydroxynaphthanilides on Human Cancer Cell Lines” (International Journal of Molecular Sciences, 2016).
